Results on 25 compounds are retold here after patent US20080234262A1 (Wyeth, priority 2007, published 2008).

The structures appear in SMILES notation. Like-named read-outs stand apart in the source and are kept apart here.

Test [1] addresses PI3K (Homo sapiens, UniProt P42336). Kind of test: Fluorescence polarization assay for PI3K.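 Also: PI3K kinase reaction on PIP2 with ATP, 30-60 min, product sensed by GST-GRP with red probe in fluorescence polarization (mP), controls without enzyme and at zero time.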 The class given is biochemical. Background: In fluorescence polarisation assays a small probe gives low polarisation when free and higher when bound to something large.
Test [2] concerns prostate line LNCap. Briefly: In vitro cell culture growth assay (MTS), LNCap. The conditions noted are these: LNCap cells, three days after drug treatment. Format: cell-based, human.
Test [3] has as its system breast line MDA468. Kind of test: In vitro cell culture growth assay (MTS), MDA468. Format: cell-based, human. The conditions noted are these: MDA468 cells, three days after drug treatment. Put shortly: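 MDA468 or LNCap cells received inhibitors one day after plating and were grown for three days. Viable cell density read by MTS conversion, absorbance 490 nm, expressed as percent of control growth versus vehicle-treated cells on the same plate.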

PI3K, sequence (P42336 whole entry): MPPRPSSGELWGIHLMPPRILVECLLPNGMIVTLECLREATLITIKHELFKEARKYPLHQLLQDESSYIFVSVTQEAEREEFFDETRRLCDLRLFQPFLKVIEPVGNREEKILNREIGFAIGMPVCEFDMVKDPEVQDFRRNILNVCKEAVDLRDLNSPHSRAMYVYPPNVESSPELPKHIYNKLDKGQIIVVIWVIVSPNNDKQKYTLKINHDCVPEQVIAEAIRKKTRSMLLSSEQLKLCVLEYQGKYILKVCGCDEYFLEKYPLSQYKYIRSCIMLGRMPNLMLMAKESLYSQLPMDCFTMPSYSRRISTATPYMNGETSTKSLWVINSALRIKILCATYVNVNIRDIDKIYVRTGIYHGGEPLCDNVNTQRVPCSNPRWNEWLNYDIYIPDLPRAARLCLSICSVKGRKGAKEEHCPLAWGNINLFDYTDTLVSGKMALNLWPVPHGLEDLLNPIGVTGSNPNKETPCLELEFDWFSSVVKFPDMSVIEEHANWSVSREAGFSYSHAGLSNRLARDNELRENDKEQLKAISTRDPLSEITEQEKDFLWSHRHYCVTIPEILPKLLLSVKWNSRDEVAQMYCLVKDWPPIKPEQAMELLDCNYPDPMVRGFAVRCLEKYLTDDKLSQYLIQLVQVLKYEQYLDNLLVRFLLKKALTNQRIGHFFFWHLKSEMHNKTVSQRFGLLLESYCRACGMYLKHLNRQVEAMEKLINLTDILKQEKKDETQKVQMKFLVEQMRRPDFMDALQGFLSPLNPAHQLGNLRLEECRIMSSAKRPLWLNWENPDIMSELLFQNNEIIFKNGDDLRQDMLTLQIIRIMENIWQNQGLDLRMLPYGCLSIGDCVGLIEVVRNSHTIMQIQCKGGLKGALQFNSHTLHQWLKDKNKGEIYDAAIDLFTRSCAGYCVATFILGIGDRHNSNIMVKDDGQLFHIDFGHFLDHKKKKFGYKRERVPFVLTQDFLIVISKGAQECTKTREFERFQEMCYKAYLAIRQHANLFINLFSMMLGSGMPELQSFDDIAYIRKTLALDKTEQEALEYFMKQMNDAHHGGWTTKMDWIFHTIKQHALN
PI3K, sequence (P27986 whole entry partner): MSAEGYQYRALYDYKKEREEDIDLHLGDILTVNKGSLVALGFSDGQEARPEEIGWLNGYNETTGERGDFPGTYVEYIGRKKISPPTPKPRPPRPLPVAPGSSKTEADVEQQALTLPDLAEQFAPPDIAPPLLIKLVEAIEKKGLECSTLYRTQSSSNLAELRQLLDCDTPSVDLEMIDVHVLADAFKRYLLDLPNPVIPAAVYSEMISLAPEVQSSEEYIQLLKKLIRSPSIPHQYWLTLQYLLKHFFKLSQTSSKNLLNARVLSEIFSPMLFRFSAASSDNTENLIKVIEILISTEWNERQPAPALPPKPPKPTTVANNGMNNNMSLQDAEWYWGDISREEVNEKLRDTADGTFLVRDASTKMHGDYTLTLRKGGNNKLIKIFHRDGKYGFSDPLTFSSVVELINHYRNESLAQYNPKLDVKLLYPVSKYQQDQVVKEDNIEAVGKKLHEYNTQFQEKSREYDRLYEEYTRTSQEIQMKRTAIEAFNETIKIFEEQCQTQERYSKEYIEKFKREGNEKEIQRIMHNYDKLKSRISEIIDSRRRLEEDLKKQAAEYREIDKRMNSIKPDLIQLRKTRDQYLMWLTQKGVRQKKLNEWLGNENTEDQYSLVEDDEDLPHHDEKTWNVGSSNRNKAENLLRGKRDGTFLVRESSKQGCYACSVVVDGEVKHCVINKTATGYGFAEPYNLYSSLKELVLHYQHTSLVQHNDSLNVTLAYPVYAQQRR

In the case of `COC(=O)Nc1ccc(-c2nc(N3CCOCC3)c3cnn(C4CCN(CC(N)=O)CC4)c3n2)cc1` [Compound 456, methyl (4-{1-[1-(2-amino-2-oxoethyl)piperidin-4-yl]-4-morpholin-4-yl-1H-pyrazolo[3,4-d]pyrimidin-6-yl}phenyl)carbamate], the IC50 in test [1] (PI3Kα, read-out: PI3Kα IC50) turned out to be 1430 nM; in test [2] (Homo sapiens, LNCaP, 72 h) it was 1300 nM; in test [3] (Homo sapiens, 72 h), 3200 nM.

Turning to `c1cc2cc(-c3nc(N4CCOCC4)c4cnn(C5CCCCO5)c4n3)ccc2[nH]1` (stereo not drawn) [Compound 928, 6-(1H-indol-5-yl)-4-morpholin-4-yl-1-(tetrahydro-2H-pyran-2-yl)-1H-pyrazolo[3,4-d]pyrimidine], the IC50 amounted to 2420 nM in test [1] (PI3Kα, read-out: PI3Kα IC50); 4200 nM in test [2]; 1000 nM in test [3].

Consider `CN1CCN(C(=O)N2CCC(n3ncc4c(N5CCOCC5)nc(-c5ccc6[nH]ccc6c5)nc43)CC2)CC1` [Compound 120], for which the IC50 worked out at 737 nM in test [1] (PI3Kα, read-out: PI3Kα IC50); 700 nM in test [2] (Homo sapiens, LNCaP, 72 h); 2000 nM in test [3] (Homo sapiens, 72 h).

For `CC(c1ccccc1)N1CCC(n2ncc3c(N4CCOCC4)nc(-c4ccc5[nH]ccc5c4)nc32)CC1` (stereo not drawn) [Compound 490, 6-(1H-indol-5-yl)-4-morpholin-4-yl-1-[1-(1-phenylethyl)piperidin-4-yl]-1H-pyrazolo[3,4-d]pyrimidine], the IC50 in test [1] (PI3Kα, read-out: PI3Kα IC50) amounted to 2670 nM; in test [2] (Homo sapiens, LNCaP, 72 h), 3800 nM; in test [3] (Homo sapiens, 72 h), 3500 nM.

With `Nc1ccc(-c2nc(N3CCOCC3)c3cnn(C4CCN(Cc5ccccc5)CC4)c3n2)cc1F` [Compound 594, 4-[1-(1-benzylpiperidin-4-yl)-4-morpholin-4-yl-1H-pyrazolo[3,4-d]pyrimidin-6-yl]-2-fluoroaniline], the IC50 in test [1] (PI3Kα, read-out: PI3Kα IC50) turned out to be 1650 nM; in test [2] (Homo sapiens, LNCaP, 72 h), 2000 nM; in test [3] (Homo sapiens, 72 h) it was 4000 nM.

As for `CCCOC(=O)N1CCC(n2ncc3c(N4CCOCC4)nc(-c4ccc(NC(=O)OC)cc4)nc32)CC1` [Compound 857, propyl 4-(6-{4-[(methoxycarbonyl)amino]phenyl}-4-morpholin-4-yl-1H-pyrazolo[3,4-d]pyrimidin-1-yl)piperidine-1-carboxylate], the IC50 in test [1] (PI3Kα, read-out: PI3Kα IC50) is 2770 nM; in test [2] (Homo sapiens, LNCaP, 72 h), 1600 nM; in test [3] (Homo sapiens, 72 h), 5000 nM.

As for `O=C(NCCO)Nc1ccc(-c2nc(N3CCOCC3)c3cnn(CC(F)(F)F)c3n2)cc1` [Compound 791, 1-(2-hydroxyethyl)-3-{4-[4-morpholin-4-yl-1-(2,2,2-trifluoroethyl)-1H-pyrazolo[3,4-d]pyrimidin-6-yl]phenyl}urea], the IC50 stood at 136 nM in test [1] (PI3Kα, read-out: PI3Kα IC50); 220 nM in test [2] (Homo sapiens, LNCaP, 72 h); 260 nM in test [3] (Homo sapiens, 72 h).

Regarding `Nc1ccnc(-c2nc(N3CCOCC3)c3cnn(C4CCN(C(=O)c5cccnc5)CC4)c3n2)c1` [Compound 434, 2-{4-morpholin-4-yl-1-[1-(pyridin-3-ylcarbonyl)piperidin-4-yl]-1H-pyrazolo[3,4-d]pyrimidin-6-yl}pyridin-4-amine], the IC50 in test [1] (PI3Kα, read-out: PI3Kα IC50) worked out at 6660 nM; in test [2] (Homo sapiens, LNCaP, 72 h), 39000 nM; in test [3] (Homo sapiens, 72 h), 60000 nM.

For the compound `CNC(=O)Nc1ccc(-c2nc(N3CCOCC3)c3cnn(C4CCN(Cc5ccco5)CC4)c3n2)cc1` [Example 402, 1-(4-{1-[1-(2-furylmethyl)piperidin-4-yl]-4-morpholin-4-yl-1H-pyrazolo[3,4-d]pyrimidin-6-yl}phenyl)-3-methylurea], the IC50 stood at 63 nM in test [1] (PI3Kα, read-out: PI3Kα IC50); 27 nM in test [2] (Homo sapiens, LNCaP, 72 h); 500 nM in test [3] (Homo sapiens, 72 h).

With `CNC(=O)Nc1ccc(-c2nc(N3CCOCC3)c3cnn(C4CCN(C(C)=O)CC4)c3n2)cc1` [Compound 716, 1-{4-[1-(1-acetylpiperidin-4-yl)-4-morpholin-4-yl-1H-pyrazolo[3,4-d]pyrimidin-6-yl]phenyl}-3-methylurea], the IC50 in test [1] (PI3Kα, read-out: PI3Kα IC50) worked out at 224 nM; in test [2] it was 800 nM; in test [3], 1200 nM.

As to `COC(=O)N1CCC(n2ncc3c(N4CCOCC4)nc(-c4ccc(O)cc4)nc32)CC1` [Compound 944, methyl 4-[6-(4-hydroxyphenyl)-4-morpholin-4-yl-1H-pyrazolo[3,4-d]pyrimidin-1-yl]piperidine-1-carboxylate], the 50% inhibitory concentration (IC50) in test [1] (PI3Kα, read-out: PI3Kα IC50) turned out to be 2660 nM; in test [2] (Homo sapiens, LNCaP, 72 h), 900 nM; in test [3] (Homo sapiens, 72 h) it was 2100 nM.

On to `COC(=O)N1CCC(n2ncc3c(N4CCOCC4)nc(-c4ccc(NC(=O)Oc5ccccc5)cc4)nc32)CC1` [Compound 945, methyl 4-(4-morpholin-4-yl-6-{4-[(phenoxycarbonyl)amino]phenyl}-1H-pyrazolo[3,4-d]pyrimidin-1-yl)piperidine-1-carboxylate], for which the IC50 in test [1] (PI3Kα IC50, PI3Kα) is greater than 10000 nM; in test [2] (Homo sapiens, 72 h), 5000 nM; in test [3] (Homo sapiens, 72 h), 20000 nM.

With `c1cc2cc(-c3nc(N4CCOCC4)c4cnn(CCN5CCNCC5)c4n3)ccc2[nH]1` [Compound 162, 6-(1H-indol-5-yl)-4-morpholin-4-yl-1-(2-piperazin-1-ylethyl)-1H-pyrazolo[3,4-d]pyrimidine], the IC50 in test [1] (PI3Kα, read-out: PI3Kα IC50) was determined as 1850 nM; in test [2] (Homo sapiens, LNCaP, 72 h), 33000 nM; in test [3] (Homo sapiens, 72 h), 60000 nM.

For the compound `CCOC(=O)CN1CCC(n2ncc3c(N4CCOCC4)nc(-c4ccc(NC(=O)NC)cc4)nc32)CC1` [Compound 795, ethyl [4-(6-{4-[(methylcarbamoyl)amino]phenyl}-4-morpholin-4-yl-1H-pyrazolo[3,4-d]pyrimidin-1-yl)piperidin-1-yl]acetate], the concentration for half-maximal inhibition (IC50) is 158 nM in test [1] (PI3Kα, read-out: PI3Kα IC50); 102 nM in test [2] (Homo sapiens, LNCaP, 72 h); 420 nM in test [3] (Homo sapiens, 72 h).

Turning to `CCCOC(=O)N1CCC(n2ncc3c(N4CCOCC4)nc(-c4ccc(NC(=O)NC5CC5)cc4)nc32)CC1` [Compound 856, propyl 4-(6-{4-[(cyclopropylcarbamoyl)amino]phenyl}-4-morpholin-4-yl-1H-pyrazolo[3,4-d]pyrimidin-1-yl)piperidine-1-carboxylate], the IC50 in test [1] (PI3Kα, read-out: PI3Kα IC50) was found to be 770 nM; in test [2] (Homo sapiens, LNCaP, 72 h), 90 nM; in test [3] (Homo sapiens, 72 h), 510 nM.

Regarding `O=C(NCCO)Nc1ccc(-c2nc(N3CCOCC3)c3cnn(C4CCN(Cc5cccnc5)CC4)c3n2)cc1` [Compound 561, 1-(2-hydroxyethyl)-3-(4-{4-morpholin-4-yl-1-[1-(pyridin-3-ylmethyl)piperidin-4-yl]-1H-pyrazolo[3,4-d]pyrimidin-6-yl}phenyl)urea], the concentration for half-maximal inhibition (IC50) is 162 nM in test [1] (PI3Kα, read-out: PI3Kα IC50); 500 nM in test [2] (Homo sapiens, LNCaP, 72 h); 600 nM in test [3] (Homo sapiens, 72 h).

Take `CNC(=O)Nc1ccc(-c2nc(N3CCOCC3)c3cnn(C4CCN(Cc5cccc(C)c5)CC4)c3n2)cc1` [Example 430, 1-methyl-3-(4-{1-[1-(3-methylbenzyl)piperidin-4-yl]-4-morpholin-4-yl-1H-pyrazolo[3,4-d]pyrimidin-6-yl}phenyl)urea]: the IC50 worked out at 42 nM in test [1] (PI3Kα, read-out: PI3Kα IC50); 52 nM in test [2] (Homo sapiens, LNCaP, 72 h); 200 nM in test [3] (Homo sapiens, 72 h).

Take `NC(=O)Nc1ccc(-c2nc(N3CCOCC3)c3cnn(C4CCN(C(=O)c5cccnc5)CC4)c3n2)cc1` [Compound 546, 1-(4-{4-morpholin-4-yl-1-[1-(pyridin-3-ylcarbonyl)piperidin-4-yl]-1H-pyrazolo[3,4-d]pyrimidin-6-yl}phenyl)urea]: the IC50 stood at 178 nM in test [1] (PI3Kα, read-out: PI3Kα IC50); 3000 nM in test [2] (Homo sapiens, LNCaP, 72 h); 1800 nM in test [3] (Homo sapiens, 72 h).

As to `O=C(NCCc1ccccc1)Nc1ccc(-c2nc(N3CCOCC3)c3cnn(C4CCN(Cc5ccccc5)CC4)c3n2)cc1` [Compound 259, 1-{4-[1-(1-benzylpiperidin-4-yl)-4-morpholin-4-yl-1H-pyrazolo[3,4-d]pyrimidin-6-yl]phenyl}-3-(2-phenylethyl)urea], the IC50 is 2140 nM in test [1] (PI3Kα, read-out: PI3Kα IC50); 1000 nM in test [2] (Homo sapiens, LNCaP, 72 h); 20000 nM in test [3] (Homo sapiens, 72 h).

With `O=C1Cc2cc(-c3nc(N4CCOCC4)c4cnn(-c5ccccc5)c4n3)ccc2N1` [Compound 433, 5-(4-morpholin-4-yl-1-phenyl-1H-pyrazolo[3,4-d]pyrimidin-6-yl)-1,3-dihydro-2H-indol-2-one], the 50% inhibitory concentration (IC50) in test [1] (PI3Kα, read-out: PI3Kα IC50) worked out at 1030 nM; in test [2] (Homo sapiens, LNCaP, 72 h), 60000 nM; in test [3] (Homo sapiens, 72 h), 60000 nM.

In the case of `COC(=O)Nc1ccc(-c2nc(N3CCOCC3)c3cnn(C4CCN(C(=O)c5ccccc5)CC4)c3n2)cc1` [Example 442, methyl {4-[1-(1-benzoylpiperidin-4-yl)-4-morpholin-4-yl-1H-pyrazolo[3,4-d]pyrimidin-6-yl]phenyl}carbamate], the IC50 worked out at 1010 nM in test [1] (PI3Kα, read-out: PI3Kα IC50); 150 nM in test [2] (Homo sapiens, LNCaP, 72 h); 500 nM in test [3] (Homo sapiens, 72 h).

With `O=C(Nc1ccc(-c2nc(N3CCOCC3)c3cnn(C4CCN(Cc5cccnc5)CC4)c3n2)cc1)Nc1ccsc1` [Compound 620, 1-(4-{4-morpholin-4-yl-1-[1-(pyridin-3-ylmethyl)piperidin-4-yl]-1H-pyrazolo[3,4-d]pyrimidin-6-yl}phenyl)-3-(3-thienyl)urea], the IC50 in test [1] (PI3Kα, read-out: PI3Kα IC50) is 10 nM; in test [2] (Homo sapiens, LNCaP, 72 h), 34 nM; in test [3] (Homo sapiens, 72 h), 130 nM.

Regarding `COC(=O)N1CCC(n2ncc3c(N4CCOCC4)nc(-c4ccc(N/C(=N/C#N)Oc5ccccc5)cc4)nc32)CC1` [Compound 949, methyl 4-[6-(4-{[(Z)-(cyanoimino)(phenoxy)methyl]amino}phenyl)-4-morpholin-4-yl-1H-pyrazolo[3,4-d]pyrimidin-1-yl]piperidine-1-carboxylate], the IC50 in test [1] (PI3Kα, read-out: PI3Kα IC50) came out at 1890 nM; in test [2] (Homo sapiens, LNCaP, 72 h), 9800 nM; in test [3] (Homo sapiens, 72 h), 25000 nM.

Consider `OCCCN1CCC(n2ncc3c(N4CCOCC4)nc(-c4ccc5[nH]ccc5c4)nc32)CC1` [Compound 497, 3-{4-[6-(1H-indol-5-yl)-4-morpholin-4-yl-1H-pyrazolo[3,4-d]pyrimidin-1-yl]piperidin-1-yl}propan-1-ol], for which the IC50 was 7290 nM in test [1] (PI3Kα, read-out: PI3Kα IC50); 2500 nM in test [2] (Homo sapiens, LNCaP, 72 h); 3000 nM in test [3] (Homo sapiens, 72 h).

Take `NS(=O)(=O)c1cccc(-c2nc(N3CCOCC3)c3cnn(C4CCN(Cc5ccccc5)CC4)c3n2)c1` [Compound 83]: the IC50 was determined as 2410 nM in test [1] (PI3Kα, read-out: PI3Kα IC50); 4000 nM in test [2] (Homo sapiens, LNCaP, 72 h); 7000 nM in test [3] (Homo sapiens, 72 h).

The IC50 is the point on the concentration scale where inhibition reaches its midpoint.
